Results taken from paper PMC13261308, “Mapping Functionally Relevant Tractable Lysines of Challenging Protein Targets by Covalent Fragment Screening” (Chembiochem, 2026).

What was measured:
[1] = HPLC-MS-based stability (blank, without N-α-acetyl-lysine) in BBS buffer pH 10.2; conditions: pH 10.2 buffer without N-α-acetyl-lysine
Experimental: (§1) 1.2.1 HPLC-MS-based N-α-acetyl-lysine reactivity assay3
(§2) HPLC-MS measurements were performed using a Shimadzu LCMS-2020 device equipped with a positive–negative double ion source (DUIS±) and a quadrupole MS analyzer in the range of m/z 50–1000. The sample was eluted with gradient elution using eluent A (0.1% HCOOH in H2O) and eluent B (0.1% HCOOH in MeCN). The column temperature was always kept at 30 °C; the injection volume was 10 µL, and the flow rate was set to 1.5 mL/min. A Reprospher C18 (5 μm, 100 mm × 3 mm) column was used along with the following gradient. The in itial condition was 0% B eluent, followed by a linear gradient to 100% B eluent by 2 min; from 2 to […]
(§3) was restored and retained until 5 min.
(§4) For the reactivity and stability assay, in a glass LC-MS vial the internal standard (indoprofen or papaverine or 1,4-dicyanobenzene, 50 µL, 2 mM in acetonitrile) and the 100 mM BBS buffer […]
(§5) of reactivity or stability, respectively). Finally, to this mixture the corresponding electrophile was added (50 µl, 20 mM in acetonitrile) right before the measurement. The vial was mixed, then analyzed by HPLC-MS (10 µL injection volume) at intervals of approximately 60 min (0-4 h, 6 […]
(§6) Final volume was 1 mL. In the case of highly reactive compounds, the measurement was done within 1 h, monitored every 5 minutes. The AUC (area under the […]
(§7) corrected with the internal standard. The fragments’ AUC values were subjected to ordinary least-squares (OLS) linear regression, and to compute the important parameters (kinetic rate constant and half-life time), an Excel sheet was applied. The data are expressed as means of duplicate determination. The kinetic rate constant for the degradation and corrected N-α-acetyl-lysine reactivity were calculated as follows. The reaction half-life for pseudo-first-order reactions (t1/2) is ln 2/k, where k is the reaction rate. In the case of competing reactions (reaction with N-α-acetyl-lysine and degradation), the apparent reaction rate is kLys = kBlank + kBinding.
(§8) When half-lives are measured experimentally, t1/2(Lys) = ln 2/(kLys) = ln 2/(kBlank + kBinding). In our case, the corrected kBlank and kLys (regarding blank and N-α-acetyl lysine-containing samples, respectively) can be calculated by linear regression of the measured kinetic data points. […]

[2] = HPLC-MS-based N-α-acetyl-lysine reactivity assay; conditions: pH 10.2, monitored for 24 h
Experimental: as §1, §2, §3, §4, §5, §6, §7, §8

Row | SMILES | Stability t1/2, pH 10.2 [1] [h] | Lys-reactivity t1/2, pH 10.2 [2] [h]
1 | O=S(=O)(F)Oc1cc(C(F)(F)F)cc(C(F)(F)F)c1 [compound 4] | 4.94 | 
2 | O=S(=O)(On1nnc2ccccc21)c1cc(C(F)(F)F)cc(C(F)(F)F)c1 [compound 6] | 0.35 | 
3 | Cc1ccc(S(=O)(=O)N(CC#N)C(=O)Cc2cc(C(F)(F)F)cc(C(F)(F)F)c2)cc1 [compound 8] | 0.17 | 0.26
4 | CC(=O)N(C(=O)c1cc(C(F)(F)F)cc(C(F)(F)F)c1)c1ccccc1 [compound 13] |  | 0.27
5 | FC(F)=Cc1cc(C(F)(F)F)cc(C(F)(F)F)c1 [compound 17] | 3.32 | 
6 | COc1c(Nc2cc(C(F)(F)F)cc(C(F)(F)F)c2)c(=O)c1=O [compound 18] | 12.17 | 
7 | FC(F)(F)c1cc(Nc2nc(Cl)nc(Cl)n2)cc(C(F)(F)F)c1 [compound 19] | 0.97 | 
8 | O=Cc1c(O)cc(C(F)(F)F)cc1C(F)(F)F [compound 26] | 246.76 | 40.93
9 | O=Cc1cc2ccccc2cc1C=O [compound 31, 2,3‐naphthalene‐dicarboxaldehyde] | 11.69 | 
10 | C#Cc1ccc(C(F)(F)F)cc1C=O [compound 32] | 15.36 | 0.23
